The text below walks through data of US9486444B1, “Anti-cancer compound” (KING SAUD UNIVERSITY, priority 2016, dated 2016).

For the data set, the system named is U-937 blood cancer cell line. As to the kind of experiment: MTT in vitro cytotoxicity assay. Format: cell-based. To be noted: U-937, MTT assay. The protocol: For cytotoxicity assays, the anti-cancer compounds were prepared as a stock solution, to suit a universal 96 well plate map, at different concentrations in μM, and dissolved in DMSO dH2O. Working solutions were prepared in the culture medium and added to the wells 24 hours after seeding of 5 to 7×10^3 cells per well in 200 μL of fresh culture medium. DMSO (1%)/dH2O was used as the solvent control. The DMSO concentration was maintained at a concentration less than 1% (i.e., a non-toxic concentration). Microscopic cytological changes were monitored and photographed following exposure to different concentrations of the compounds for 24 and 48 hours using an inverted microscope. After the respective periods of treatment, plates were centrifuged and washed with fresh growth medium. Then, 20 μL of MTT solution [5 mg/mL in phosphate-buffered saline (PBS)] was added to each well, and the plates were wrapped with aluminum foil and incubated overnight at 37° C. The plates were centrifuged and the supernatants were removed carefully […]. The purple formazan product was dissolved in 100 μL of 100% DMSO. The absorbance was monitored at 570 nm (measurement) and 630 nm (reference) using a 96 well plate reader. Data were collected for four replicates each and used to calculate the median effect dose or concentration; i.e., IC50. […]

Entries after “also recorded” stand apart in the source; their conditions may differ.

As for “5′-benzyl-4′-(p-tolyl)-5-(trifluoromethoxy)spiro[3,2′]oxindolopyrrolidino-4′-(methylphenyl)-1″-styryl-5-benzylidene-spiro[3′.3″]piperidi-4″-one [Compound 4i]”, the “cytotoxicity (in words)” value (24 and 48 hours) is recorded as “most cytotoxic compound; also recorded: excellent cytotoxicity effects at the lowest concentrations”.

For the substance bleomycin [reference compound], the IC50 (24 hour incubation time, read-out: IC50 = concentration of drug required to inhibit growth of 50% of the cancer cells) is 16.2 ± 4.5 µM.
